In US6395749B1, “Carboxamide compounds, methods, and compositions for inhibiting PARP activity” (Guilford Pharmaceuticals Inc., priority 1998, dated 2002):

System: C57/BL male mice
Test: Septic shock assay (LPS plus galactosamine challenge)
Assay type: in vivo, mouse
Details: 60, 20, 6 and 2 mg/kg daily IP for three days, first dose 30 minutes after challenge; dose of the result not stated
Method: Groups of 10 C57/BL male mice weighing 18 to 20 g were administered a test compound, 1-carboxynaphthalene-1-carboxamide at the doses of 60, 20, 6 and 2 mg/kg, daily, by intraperitoneal (IP) injection for three consecutive days. Each animal was first challenged with lipopolysaccharide (LPS, from E. Coli, LD100 of 20 mg/animal IV) plus galactosamine (20 mg/animal IV). The first dose of test compound in a suitable vehicle was given 30 minutes after challenge, and the second and third doses were given 24 hours later on day 2 and day 3 respectively, with only the surviving animals receiving the second or third dose of the test compound. Mortality was recorded every 12 hours after challenge for the three-day testing period. 1-Carboxy-naphthalene-1-carboxamide provided a protection against mortality from septic shock of about 40%.

With `NC(=O)c1cccc2cccc(C(=O)O)c12` [1-Carboxy-naphthalene-1-carboxamide, 8-carboxynaphthalene-1-carboxamide] the “protection against mortality from septic shock” value was “about 40%”.
